Measurements published in patent US7709443B2, “Cyclic peptide antitumor agents” (Northwestern University, priority 2003, dated 2010).
Read-outs that look alike come from different tables or passages of the source. Square brackets hold non-standard residues; d marks the D form. Peptide text beside a SMILES is read from it. Phe(4-Br) = N[C@@H](Cc1ccc(Br)cc1)C(=O)O; NMeF = CN[C@@H](Cc1ccccc1)C(=O)O; NMeL = CN[C@@H](CC(C)C)C(=O)O; NMeV = CN[C@H](C(=O)O)C(C)C

What was measured:
Details in all cases: three days
[1] = test system: WM115 (Melanoma) human cancer cell line
Description: (§1) Cells were plated at 5,000 cells per well in 24-well plates, treated for three days, then counted. Cell number was normalized to the number of cells in untreated control (DMSO) cells, also after three days.

[2] = test system: PC-3 (Prostate) human cancer cell line
Description: as §1

[3] = test system: MDA-MB231 (Breast) human cancer cell line
Description: as §1

## CC(C)C[C@@H]1NC(=O)[C@H](Cc2ccc(Br)cc2)NC(=O)[C@H](CC(C)C)NC(=O)[C@H](C(C)C)NC(=O)[C@H](CC(C)C)NC1=O [Compound 1a] (cyclo([Phe(4-Br)]LLVL))
[1]; WM115, 1 μM
  Fold Induction Over DMSO control: 0.85
[1]; WM115, 10 μM
  Fold Induction Over DMSO control: 0.99
[2]; PC-3, 1 μM
  Fold Induction Over DMSO control: 0.94
[2]; PC-3, 10 μM
  Fold Induction Over DMSO control: 0.74
[3]; MDA-MB231, 1 μM
  Fold Induction Over DMSO control: 0.95
[3]; MDA-MB231, 10 μM
  Fold Induction Over DMSO control: 0.60

## CC(C)C[C@@H]1NC(=O)[C@H](C(C)C)NC(=O)[C@H](CC(C)C)NC(=O)[C@H](CC(C)C)N(C)C(=O)[C@H](Cc2ccccc2)NC1=O [Compound 1b] (cyclo(F[NMeL]LVL))
[1]; WM115, 1 μM
  Fold Induction Over DMSO control: 1.02
[1]; WM115, 10 μM
  Fold Induction Over DMSO control: 3.02
[2]; PC-3, 1 μM
  Fold Induction Over DMSO control: 1.24
[2]; PC-3, 10 μM
  Fold Induction Over DMSO control: 0.81
[3]; MDA-MB231, 1 μM
  Fold Induction Over DMSO control: 0.87
[3]; MDA-MB231, 10 μM
  Fold Induction Over DMSO control: 0.71

## CC(C)C[C@@H]1NC(=O)[C@H](C(C)C)NC(=O)[C@H](CC(C)C)N(C)C(=O)[C@H](CC(C)C)NC(=O)[C@H](Cc2ccccc2)NC1=O [Compound 1d] (cyclo(FL[NMeL]VL))
[1]; WM115, 1 μM
  Fold Induction Over DMSO control: 0.87
[1]; WM115, 10 μM
  Fold Induction Over DMSO control: 0.98
[2]; PC-3, 1 μM
  Fold Induction Over DMSO control: 0.63
[2]; PC-3, 10 μM
  Fold Induction Over DMSO control: 0.52
[3]; MDA-MB231, 1 μM
  Fold Induction Over DMSO control: 1.09
[3]; MDA-MB231, 10 μM
  Fold Induction Over DMSO control: 0.91

## CC(C)C[C@@H]1NC(=O)[C@H](C(C)C)NC(=O)[C@H](CC(C)C)N(C)C(=O)[C@H](CC(C)C)NC(=O)[C@H](Cc2ccc(Br)cc2)NC1=O [Compound 1e] (cyclo([Phe(4-Br)]L[NMeL]VL))
[1]; WM115, 1 μM
  Fold Induction Over DMSO control: 0.89
[1]; WM115, 10 μM
  Fold Induction Over DMSO control: 0.95
[2]; PC-3, 1 μM
  Fold Induction Over DMSO control: 0.62
[2]; PC-3, 10 μM
  Fold Induction Over DMSO control: 0.82
[3]; MDA-MB231, 1 μM
  Fold Induction Over DMSO control: 1.20
[3]; MDA-MB231, 10 μM
  Fold Induction Over DMSO control: 0.82

## CC(C)C[C@@H]1NC(=O)[C@H](Cc2ccccc2)NC(=O)[C@H](CC(C)C)NC(=O)[C@H](C(C)C)N(C)C(=O)[C@H](CC(C)C)NC1=O [Compound 1f] (cyclo(FLL[NMeV]L))
[1]; WM115, 1 μM
  Fold Induction Over DMSO control: 1.00
[1]; WM115, 10 μM
  Fold Induction Over DMSO control: 1.06
[2]; PC-3, 1 μM
  Fold Induction Over DMSO control: 0.92
[2]; PC-3, 10 μM
  Fold Induction Over DMSO control: 0.74
[3]; MDA-MB231, 1 μM
  Fold Induction Over DMSO control: 1.04
[3]; MDA-MB231, 10 μM
  Fold Induction Over DMSO control: 0.26

## CC(C)C[C@@H]1NC(=O)[C@H](Cc2ccc(Br)cc2)NC(=O)[C@H](CC(C)C)NC(=O)[C@H](C(C)C)N(C)C(=O)[C@H](CC(C)C)NC1=O [Compound 1g] (cyclo([Phe(4-Br)]LL[NMeV]L))
[1]; WM115, 1 μM
  Fold Induction Over DMSO control: 1.02
[1]; WM115, 10 μM
  Fold Induction Over DMSO control: 0.84
[2]; PC-3, 1 μM
  Fold Induction Over DMSO control: 0.74
[2]; PC-3, 10 μM
  Fold Induction Over DMSO control: 0.67
[3]; MDA-MB231, 1 μM
  Fold Induction Over DMSO control: 0.88
[3]; MDA-MB231, 10 μM
  Fold Induction Over DMSO control: 0.31

## CC(C)C[C@@H]1NC(=O)[C@H](Cc2ccccc2)NC(=O)[C@H](CC(C)C)N(C)C(=O)[C@H](C(C)C)NC(=O)[C@H](CC(C)C)NC1=O [Compound 1h] (cyclo(FLLV[NMeL]))
[1]; WM115, 1 μM
  Fold Induction Over DMSO control: 1.13
[1]; WM115, 10 μM
  Fold Induction Over DMSO control: 0.51
[2]; PC-3, 1 μM
  Fold Induction Over DMSO control: 0.79
[2]; PC-3, 10 μM
  Fold Induction Over DMSO control: 0.64
[3]; MDA-MB231, 1 μM
  Fold Induction Over DMSO control: 1.01
[3]; MDA-MB231, 10 μM
  Fold Induction Over DMSO control: 0.28

## CC(C)C[C@@H]1NC(=O)[C@H](CC(C)C)NC(=O)[C@H](Cc2ccccc2)N(C)C(=O)[C@H](CC(C)C)NC(=O)[C@H](C(C)C)NC1=O [Compound 1j] (cyclo([NMeF]LLVL))
[1]; WM115, 1 μM
  Fold Induction Over DMSO control: 1.75
[1]; WM115, 10 μM
  Fold Induction Over DMSO control: 0.60
[2]; PC-3, 1 μM
  Fold Induction Over DMSO control: 0.86
[2]; PC-3, 10 μM
  Fold Induction Over DMSO control: 0.8
[3]; MDA-MB231, 1 μM
  Fold Induction Over DMSO control: 0.78
[3]; MDA-MB231, 10 μM
  Fold Induction Over DMSO control: 0.82
